Values of other authors as cited in publication PMC4860011 (Biochemistry, 2015).
pKd: −log10 of the molar value.

Target: bsNOS (Bacillus subtilis, UniProt O34453)
Settings: read-out: KD of imidazole; used to convert KS,app to KS

bsNOS, sequence (O34453 whole entry): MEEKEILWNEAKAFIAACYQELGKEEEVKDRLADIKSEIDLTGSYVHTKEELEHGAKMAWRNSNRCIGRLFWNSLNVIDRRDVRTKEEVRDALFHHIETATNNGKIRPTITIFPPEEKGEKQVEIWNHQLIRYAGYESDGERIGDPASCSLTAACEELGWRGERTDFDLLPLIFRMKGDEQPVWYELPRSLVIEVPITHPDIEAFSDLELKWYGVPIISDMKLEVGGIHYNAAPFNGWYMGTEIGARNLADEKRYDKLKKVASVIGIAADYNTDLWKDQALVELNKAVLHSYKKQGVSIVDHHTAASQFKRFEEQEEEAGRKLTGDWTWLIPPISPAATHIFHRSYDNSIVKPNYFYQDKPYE

c1c[nH]cn1 [imidazole]
pKd: 3.42
